# Measured values from patent publication US20150141375A1 (priority 2009, published 2015).
# Where “and” joins values, the source holds several entries; their conditions need not be identical. Equal values may be shown once. Read-outs that look alike come from different tables or passages of the source.
# How the values were obtained:
# CMV [1] = tested on: CMV
# Mad-4 JCV = experiment: JCV (Mad-4) initial infection of SVG cells (in situ DNA hybridization, qPCR)
# PK comparison, rabbit = details: in vivo, 2 mg/kg, calculated from doses of 5 and 10 mg/kg, analyte = label, after CMX001
# Excerpt: Table 4 illustrates the PK comparison of CMX001 with CMX021 and CMX064 for mouse, rabbit and human.
# JCV (Mad-4) = JCV (Mad-4) replication in COS-7 cells (qPCR, immunofluorescence); assay type: cell-based, JC virus
# vaccinia virus = details: CMX001 200 mg initial dose plus other therapies (MMWR 2009); cited from earlier work
# HSV-2, strain MS = experiment: Mortality of BALB/c mice infected intranasally with HSV-2, strain MS; assay type: in vivo
# Description: Animals: BALB/c, female mice, 3-4 weeks of age.
# Treatments were administered to mice for 7 consecutive days beginning 72 hr post viral inoculation by oral gavage using a 0.2 ml volume. CMX001 was administered once daily and ACV was given twice daily at approximately 12 hr intervals.
# Mortality rates analyzed by Fisher's exact test; Mean day of death (MDD) by Mann-Whitney U rank sum.
# HPV 11 = experiment: In vitro potency against dsDNA viruses: HPV 11; assay type: cell-based
# Adenovirus = Adenovirus IC50s for CMX001, serotypes/isolates; assay type: cell-based
# AdV 5 = tested on: AdV 5; design: species or system Syrian Hamster; details: hamster, in vivo
# ADV = experiment: EIND patients previously treated with other antivirals: ADV; assay type: in vivo, human; details: EIND 108104
# Description: A further study has been conducted on patients with various viral infections and diseases associated with virus.
# As shown in Table 5(b), all patients that have been previously treated with other antiviral agents for example cidofovir. […] After these patients are treated with CMX001, the patients show significant improvements.
# CMV [2] = experiment: First fifteen EIND patients: CMV; assay type: in vivo, human; details: six CMV patients, three evaluable
# Excerpt: Three were evaluable for viral load reductions and 3/3 responded. Two of the patients who could not be evaluated for reductions in CMV had undetectable levels throughout CMX001 therapy. One patient received only one dose of CMX001 with no virologic follow up.
# RPTECs = experiment: RPTEC DNA replication (BrdU), metabolic activity (WST-1), proliferation (xCELLigence); assay type: cell-based, human; details: for reduction of rate of RPTEC proliferation (xCelligence): CMX001 0.31 μM, 48 h postexposure
# Description: (§1) RPTECs were infected with BKV(Dunlop). CMX001 was added before and 2 h postinfection (hpi). Cells and supernatants were harvested 24-72 hpi. BKV replication was examined by TaqMan assays, western blotting, IF staining and viability of RPTECs was examined by WST-1 assay, BrdU incorporation and a TaqMan assay.
# (§2) To use more sensitive assays, host cell DNA replication and metabolic activity using BrdU incorporation and WST-1 assays in uninfected RPTECs were used. Addition of CMX001 reduced both DNA replication (FIG. 2a) and metabolic activity (FIG. 2b) of uninfected RPTECs in a concentration-dependent manner. Compared to untreated RPTECs, CMX001 at 0.08 to 10 μM decreased DNA replication by 15% to 93% and the metabolic activity by 41% to 88%, respectively.
# (§3) The mitocondrial metabolic activity was monitored by the colorimetric WST-1 assay (Roche, Rotkreuz, Switzerland) measuring reduction of the Tetrazolium salt, WST-1, by mitochondrial dehydrogenases. DNA synthesis was quantified by colorimetric measurement of BrdU incorporation into DNA using the “Cell proliferation ELISA, BrdU” kit (Roche). The attachment and proliferation of the cells was measured as impedance using E-plates and the xCelligence system (Roche). In order for the RPTECs to attach and proliferate on the E-plates, the plates were first coated with fibronectin. Next the background impedance of the plates was monitored by addition of 100 μl medium to each well, before the plate was connected to the system and checked in the cell culture incubator for proper electrical-contacts. Subsequently, 100 μl cell suspension containing the indicated cell numbers was seeded. To determine the effect of BKV infection and CMX001 treatment, about 24 h after seeding 150 μl of the media was replaced with fresh media with or without purified BKV-Dunlop in the presence or absence of CMX001 (final concentration of 0.31 μM). The cells were grown for 96 h and impedance was measured every 15 minutes for the first 6 h then every 30 minutes. Impedance was expressed as an arbitrary unit called the Cell Index.
# [3] = as above; assay type: cell-based, human; details: human; BKV-infected RPTECs; read-out: CC-90 (BrdU incorporation reduced to approximately 10% of untreated infected cells)
# Description: as §1, §2, §3
# [4] = Clearance and organ distribution in mouse; assay type: in vivo; details: oral 5 mg/kg [C2-14C]CMX001, four hours
structure (smiles),measurement,setting,value
"CCCCCCCCCCCCCCCCOCCCOP(=O)(O)CO[C@H](CO)Cn1ccc(N)nc1=O [CMX001, Hexadecyloxypropyl-cidofovir]",peak plasma concentration of CMX001,"CMV [1]; person with renal failure, following the first dose",264 ng/mL
same,Plasma CMV by PCR,"CMV [1]; person, Week 5, 120 mg",3307
same,Plasma CMV by PCR,"CMV [1]; person, Week 10, 120 mg",1541
same,CMV DNA,"CMV [1]; person, following 2 weeks of skipped doses","5,037 copies/mL"
same,CMV plasma DNA,"CMV [1]; person, following the first dose (180 mg)",undetectable
same,CMV DNA,"CMV [1]; person, following the start of treatment",undetectable
same,"renal, liver, or hematologic function","CMV [1]; person, more than 16 weeks","No drug-related adverse changes in renal, liver, or hematologic function were observed"
same,reduction in percentage of JCV DNA containing cells,"Mad-4 JCV; 0.03 μM, 4 days",46%
same,decrease in number of JCV genome copies (qPCR),"Mad-4 JCV; 0.07 μM, 4 days",57%
same,reduction in percentage of JCV DNA containing cells,"Mad-4 JCV; 0.07 μM, 4 days",57%
same,"maximal suppression of JCV DNA containing cells, normalized to total cell number",Mad-4 JCV; 0.1 μM,52%
same,reduction in percentage of JCV DNA containing cells,"Mad-4 JCV; 0.1 μM, 4 days",71%
same,EC50,"Mad-4 JCV; JC polyomavirus, read-out: EC50, JCV copy number",45 nM
same,AUC,"PK comparison, rabbit",102 ng·h/mL
same,Cmax,"PK comparison, rabbit",18 ng/mL
same,reduction of extracellular JCV loads,JCV (Mad-4); 0.6 μM CMX001,approximately 90%
same,JCV VP1 immunofluorescence,"JCV (Mad-4); 1.25 μM CMX001, 7 d.p.i.",significant reduction of JCV VP1 signal
same,change in the JCV load over 7 days,JCV (Mad-4); 5 μM CMX001,less than 1 log
same,JCV VP1 immunofluorescence,"JCV (Mad-4); 5 μM CMX001, 7 d.p.i.",essentially no VP1 positive cells could be observed
same,extracellular JCV load,"JCV (Mad-4); 5 μM CMX001, 7 d.p.i. (day 1: 1.34×10^7; untreated: 5.67×10^10)",8.85×10^7 geq/ml
same,IC90,"JCV (Mad-4); JC polyomavirus, 120 h, COS-7, 5 d.p.i., viral input subtracted, read-out: IC-90, extracellular JCV load",600 nM
same,EC50,"JCV (Mad-4); JC polyomavirus, 120 h, COS-7, 5 days",150 nM
same,time until virus cultures at the vaccination site became negative for vaccinia virus,vaccinia virus,≤ 5 days
same,MDD,"HSV-2, strain MS; CMX001 0.125 mg/kg",9.0 ± 1.0
same,Mortality Number,"HSV-2, strain MS; CMX001 0.125 mg/kg",13/15
same,Mortality Percent,"HSV-2, strain MS; CMX001 0.125 mg/kg",87%
same,MDD,"HSV-2, strain MS; CMX001 0.42 mg/kg",9.8 ± 2.6
same,Mortality Number,"HSV-2, strain MS; CMX001 0.42 mg/kg",12/15
same,Mortality Percent,"HSV-2, strain MS; CMX001 0.42 mg/kg",80%
same,MDD,"HSV-2, strain MS; CMX001 1.25 mg/kg",9.4 ± 2.9
same,Mortality Number,"HSV-2, strain MS; CMX001 1.25 mg/kg",9/15
same,Mortality Percent,"HSV-2, strain MS; CMX001 1.25 mg/kg",60%
same,EC50,"HPV 11; A-431, A431",17000 nM
same,Enhanced Activity,HPV 11; CMX001 versus cidofovir EC50,42
same,IC50,Adenovirus; Ad14 (three isolates),41 nM and 36 nM
same,IC50,"Adenovirus; unidentified adenovirus, Ad3",48 nM
same,IC50,"Adenovirus; unidentified adenovirus, Ad3 ATCC",34 nM
same,IC50,"Adenovirus; unidentified adenovirus, Ad4",32 nM
same,IC50,"Adenovirus; unidentified adenovirus, Ad4 ATCC",20 nM
same,IC50,"Adenovirus; unidentified adenovirus, Ad5 ATCC",46 nM
same,IC50,"Adenovirus; unidentified adenovirus, Ad7",34 nM
same,IC50,"Adenovirus; unidentified adenovirus, Ad7 ATCC",65 nM
same,IC50,"Adenovirus; unidentified adenovirus, Ad14 (three isolates)",34 nM
same,IC50,"Adenovirus; unidentified adenovirus, Ad14 ATCC",22 nM
same,IC50,"Adenovirus; unidentified adenovirus, Ad21",44 nM
same,reduction of infectious AdV5 titers in liver,AdV 5,6 logs
same,"AdV viruria rebound, distance from baseline",ADV,within 0.7 log10 from baseline.
same,hemorrhagic cystitis,ADV,cystitis improved.
same,initial decline of AdV viruria,ADV,"2.8 log10 decline, but it rebounded to"
same,evaluable patients responding (viral load reductions),CMV [2],3/3
same,reduction of rate of RPTEC proliferation (xCelligence),RPTECs; exponentially growing BKV infected cells,approximately 35%
same,reduction of rate of RPTEC proliferation (xCelligence),RPTECs; exponentially growing uninfected cells,approximately 25%
same,SI-90,"RPTECs; estimated, RPTECs",62.5
same,CC90,[3],10000 nM
same,availability and distribution,[4],orally available and widely distributed
